Assay [1] addresses T1, human Adenosine A2a receptor (Homo sapiens, UniProt P29274).
T1 construct: expressed in transfected cells; host or cells: CHO cell membranes
In words: Adenosine receptor TR-FRET binding assay (CA200645 displacement), A2a. The note with it: 100 nM CA200645, CHO cell membranes, 2 hours at room temperature. In general terms: In TR-FRET formats the signal depends on donor and acceptor labels being close together.

Assay [2] addresses T2, human Adenosine A2b receptor (Homo sapiens, UniProt P29275).
T2 construct: expressed in transfected cells; host or cells: CHO cell membranes
T2 sequence (P29275 1-332): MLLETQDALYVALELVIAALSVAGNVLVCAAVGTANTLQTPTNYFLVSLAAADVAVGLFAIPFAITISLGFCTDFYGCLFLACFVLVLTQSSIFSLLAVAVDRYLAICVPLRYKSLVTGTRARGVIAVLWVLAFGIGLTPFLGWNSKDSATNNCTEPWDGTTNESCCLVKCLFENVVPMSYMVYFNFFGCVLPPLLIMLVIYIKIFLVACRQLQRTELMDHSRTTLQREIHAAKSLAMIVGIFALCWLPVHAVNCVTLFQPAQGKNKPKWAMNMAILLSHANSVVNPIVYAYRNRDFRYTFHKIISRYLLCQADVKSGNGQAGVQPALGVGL
Description: Adenosine receptor TR-FRET binding assay (CA200645 displacement), A2b. To be noted: 30 nM CA200645, CHO cell membranes, 2 hours at room temperature.

Another assay has as its system human PBMCs. In words: CD3/CD28 stimulated IL-2 release NECA reversal assay in human PBMCs.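 Further: dose-response as % inhibition where 100% equals no-NECA control wells with CD3/CD28.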 The format is cell-based. The note with it: PBMC, CD3/CD28 antibody stimulated, 1 uM NECA, 24 hours, IL-2 in culture supernatant. The method, then: Blood is drawn from healthy volunteers using sodium citrate as the anticoagulant (0.3% final concentration). After centrifugation of the blood over Histopaque-1077, PBMCs are collected from the Histopaque/plasma interface and washed twice in PBS (300 g for 10 mins at room temp). Cells are plated at 50,000 cells/well in 150 μl RPMI/10% FCS in 96-well cell culture plates that have been precoated with 1 ug/ml CD3 antibody. 50 μl diluted compound mix is added to the cells, to obtain final concentrations of 1 ug/ml CD28 antibody, 1 uM NECA and 0.003-10 μM adenosine receptor antagonist. Assay plates are incubated for 24 hours at 37° C. in a humidified incubator. Culture supernatant is tested for IL-2 levels using the human IL-2 Tissue Culture Kit (Meso Scale Discovery).

Assay [3] deals with T3, human Adenosine A1 receptor (Homo sapiens, UniProt P30542).
T3 sequence (P30542 1-326): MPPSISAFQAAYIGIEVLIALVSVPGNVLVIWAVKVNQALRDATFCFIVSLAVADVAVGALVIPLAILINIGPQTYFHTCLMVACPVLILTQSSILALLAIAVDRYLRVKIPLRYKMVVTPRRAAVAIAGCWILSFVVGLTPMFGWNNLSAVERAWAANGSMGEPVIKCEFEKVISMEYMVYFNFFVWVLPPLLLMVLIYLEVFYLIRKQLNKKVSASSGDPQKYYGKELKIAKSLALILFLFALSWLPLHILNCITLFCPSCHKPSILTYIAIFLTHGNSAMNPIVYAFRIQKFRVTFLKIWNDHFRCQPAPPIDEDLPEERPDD
In words: Adenosine receptor TR-FRET binding assay (CA200645 displacement), A1.

For assay [4], the target named is T4, human Adenosine A3 receptor (Homo sapiens, UniProt P0DMS8).
T4 sequence (P0DMS8 1-318): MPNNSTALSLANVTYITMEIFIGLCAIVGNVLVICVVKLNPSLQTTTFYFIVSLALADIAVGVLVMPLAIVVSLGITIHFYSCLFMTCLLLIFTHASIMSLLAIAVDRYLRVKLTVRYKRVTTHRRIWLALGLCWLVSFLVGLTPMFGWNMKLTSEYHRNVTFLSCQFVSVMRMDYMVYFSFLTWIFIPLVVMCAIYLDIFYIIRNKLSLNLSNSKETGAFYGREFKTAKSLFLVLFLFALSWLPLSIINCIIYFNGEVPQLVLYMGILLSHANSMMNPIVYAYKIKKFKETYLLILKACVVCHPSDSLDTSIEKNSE
In words: Adenosine receptor TR-FRET binding assay (CA200645 displacement), A3.

In US20230203041A1, “ANTAGONISTS OF THE ADENOSINE A2A RECEPTOR” (AdoRx Therapeutics Limited, priority 2020, published 2023) one finds Ki and IC50 data, which are given here for 19 compounds.

T1 sequence (P29274 whole entry): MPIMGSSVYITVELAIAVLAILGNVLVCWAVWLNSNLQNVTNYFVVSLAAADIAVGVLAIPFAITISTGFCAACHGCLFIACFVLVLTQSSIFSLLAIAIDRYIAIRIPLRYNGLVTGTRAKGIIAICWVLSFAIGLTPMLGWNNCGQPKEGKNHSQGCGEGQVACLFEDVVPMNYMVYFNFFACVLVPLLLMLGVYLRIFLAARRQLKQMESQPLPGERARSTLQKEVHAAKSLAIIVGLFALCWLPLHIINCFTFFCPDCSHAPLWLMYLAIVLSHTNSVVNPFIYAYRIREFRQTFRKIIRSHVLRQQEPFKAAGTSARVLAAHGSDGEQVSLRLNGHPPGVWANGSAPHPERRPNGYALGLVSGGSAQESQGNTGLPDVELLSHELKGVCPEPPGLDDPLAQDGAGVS

One may read the Ki as a dissociation constant, usually derived from enzyme kinetics or from competition with a known ligand. A high value points to a looser hold on the target. What is called IC50 is the concentration at which inhibition is half-maximal. Take `Cc1cc(-c2c(-c3cccc(C#N)c3)nn3ccc(C(=O)NC4COC4)nc23)cc(Cl)n1` [Example 5.5]: the Ki in assay [1] was 1.7 nM; in assay [2], 55 nM; in assay [3] it was 200 nM; in assay [4], more than 1000 nM. The 50% inhibitory concentration (IC50) with human PBMCs is 21 nM.

For the compound `N#Cc1c(-c2ccccc2F)nn2ccc(NCc3ccccc3)nc12` [Example 35, 5-(Benzylamino)-2-(2-fluorophenyl)pyrazolo[1,5-a]pyrimidine-3-carbonitrile], the Ki in assay [1] was 4.5 nM; in assay [2] it was 122 nM; in assay [3], 4 nM. Further, in the assay on human PBMCs, the IC50 worked out at 408 nM.

In the case of `CC(C)(C)OC(=O)N1CCO[C@@H](CNc2ccn3nc(-c4ccco4)c(C#N)c3n2)C1` [Example 37.1], the inhibitory constant (Ki) was 13.3 nM in assay [1], 46 nM in assay [2], 45 nM in assay [3] and 2090 nM in assay [4]. In addition, the IC50 with human PBMCs came to 477 nM.

In the case of `Brc1c(-c2ccco2)nn2ccc(NCc3ccccc3)nc12` [Example 44, N-Benzyl-3-bromo-2-(2-furyl)pyrazolo[1,5-a]pyrimidin-5-amine], the inhibition constant Ki was found to be 3.4 nM in assay [1], 2850 nM in assay [2], 141 nM in assay [3] and 25 nM in assay [4]. Further, the IC50 in the assay with human PBMCs amounted to 501 nM.

Regarding `N#Cc1c(-c2ccco2)nn2ccc(NCc3ccccc3)nc12` [Example 45, 5-(Benzylamino)-2-(2-furyl)pyrazolo[1,5-a]pyrimidine-3-carbonitrile], the Ki in assay [1] came to 0.5 nM; in assay [2], 74 nM; in assay [3] it was 6 nM. In the assay on human PBMCs, the IC50 amounted to 107 nM.

On to `NC(=O)c1c(-c2ccco2)nn2ccc(NCc3ccccc3)nc12` [Example 46, 5-(Benzylamino)-2-(2-furyl)pyrazolo[1,5-a]pyrimidine-3-carboxamide], for which the Ki is 2.7 nM in assay [1], 257 nM in assay [2], 146 nM in assay [3] and 1270 nM in assay [4]. For the same compound, the IC50 with human PBMCs was 60 nM.

With `O=Cc1c(-c2ccco2)nn2ccc(NCc3ccccc3)nc12` [Example 47, 5-(Benzylamino)-2-(2-furyl)pyrazolo[1,5-a]pyrimidine-3-carbaldehyde], the Ki in assay [1] is 5.2 nM; in assay [2] it was 483 nM; in assay [3] it was 174 nM; in assay [4], 510 nM. Further, the IC50 in the assay with human PBMCs was 140 nM.

Regarding `c1ccc(CNc2ccn3nc(-c4ccco4)cc3n2)cc1` [Example 48, N-Benzyl-2-(2-furyl)pyrazolo[1,5-a]pyrimidin-5-amine], the Ki amounted to 16.6 nM in assay [1], 1170 nM in assay [2], 137 nM in assay [3] and 41 nM in assay [4]. The IC50 in the assay on human PBMCs worked out at 1890 nM.

For `Cc1cccnc1CN1CCN(c2ccn3nc(-c4ccco4)c(C#N)c3n2)CC1` [Example 51, 2-(2-Furyl)-5-[4-[(3-methyl-2-pyridyl)methyl]piperazin-1-yl]pyrazolo[1,5-a]pyrimidine-3-carbonitrile], the Ki stood at 24.1 nM in assay [1], 2550 nM in assay [2], 125 nM in assay [3] and 2120 nM in assay [4]. The half-maximal inhibitory concentration (IC50) with human PBMCs was 73 nM.

On to `N#Cc1c(-c2ccco2)nn2ccc(N3CCN(Cc4c(F)cc(F)cc4F)CC3)nc12` [Example 51.1, 2-(2-Furyl)-5-[4-[(2,4,6-trifluorophenyl)methyl]piperazin-1-yl]pyrazolo [1,5-a]pyrimidine-3-carbonitrile], for which the Ki was 26.5 nM in assay [1], 1420 nM in assay [2], 322 nM in assay [3] and more than 1000 nM in assay [4]. In addition, the IC50 with human PBMCs stood at 16 nM.

In the case of `Cn1cc(-c2c(-c3ccco3)nn3ccc(NCc4ccccc4)nc23)cn1` [Example 53, N-benzyl-2-(2-furyl)-3-(1-methylpyrazol-4-yl)pyrazolo[1,5-a]pyrimidin-5-amine], the Ki turned out to be 27.7 nM in assay [1], 214 nM in assay [3] and 618 nM in assay [4]. The IC50 in the assay with human PBMCs came to 128 nM.

Consider `N#Cc1cccc(-c2nn3ccc(NCc4ccccc4)nc3c2C#N)c1` [Example 58, 5-(Benzylamino)-2-(3-cyanophenyl)pyrazolo[1,5-a]pyrimidine-3-carbonitrile], for which the Ki in assay [1] was 2 nM; in assay [3], 83 nM; in assay [4], more than 1000 nM. Besides, the IC50 with human PBMCs was found to be 118 nM.

On to `Cc1ccc(-c2nn3ccc(NCc4ccccc4)nc3c2C#N)o1` [Example 64, 5-(benzylamino)-2-(5-methyl-2-furyl)pyrazolo[1,5-a]pyrimidine-3-carbonitrile], for which the Ki in assay [1] came to 7.5 nM; in assay [2], 508 nM; in assay [3], 16 nM; in assay [4] it was 41 nM. Moreover, the IC50 in the assay on human PBMCs turned out to be 146 nM.

In the case of `Fc1cccc(-c2cc3nc(NCc4ccccc4)ccn3n2)c1` [Example 66, N-benzyl-2-(3-fluorophenyl)pyrazolo[1,5-a]pyrimidin-5-amine], the Ki in assay [1] was 44.7 nM; in assay [2], 384 nM; in assay [3] it was 59 nM; in assay [4], more than 1000 nM. In addition, the IC50 in the assay on human PBMCs worked out at 869 nM.

For the compound `N#Cc1c(-c2cccc(F)c2)nn2ccc(NCc3ccccc3)nc12` [Example 70, 5-(Benzylamino)-2-(3-fluorophenyl)pyrazolo[1,5-a]pyrimidine-3-carbonitrile], the Ki in assay [1] came to 2.2 nM; in assay [2], 181 nM; in assay [3], 2 nM. For the same compound, the IC50 with human PBMCs was determined as 177 nM.

Regarding `N#Cc1c(-c2cccc(F)c2)nn2ccc(N)nc12` [Example 72, 5-Amino-2-(3-fluorophenyl)pyrazolo[1,5-a]pyrimidine-3-carbonitrile], the Ki in assay [1] came out at 30.9 nM; in assay [2], 116 nM; in assay [3], 0.3 nM; in assay [4], 92 nM. Besides, the IC50 in the assay with human PBMCs came out at 565 nM.

Regarding `N#Cc1cccc(-c2nn3ccc(N4CCN(CCF)CC4)nc3c2C#N)c1` [Example 87, 2-(3-Cyanophenyl)-5-[4-(2-fluoroethyl)piperazin-1-yl]pyrazolo[1,5-a]pyrimidine-3-carbonitrile], the Ki in assay [1] is 23.6 nM; in assay [3] it was 2280 nM; in assay [4], more than 1000 nM. For the same compound, the IC50 in the assay with human PBMCs amounted to 57 nM.

With `Cc1cc(-c2c(-c3cccc(C#N)c3)nn3ccc(N4CCC5(CC4)CNC(=O)C5)nc23)cc(C)n1` [Example 105, 3-[3-(2,6-Dimethyl-4-pyridyl)-5-(3-oxo-2,8-diazaspiro[4.5]decan-8-yl)pyrazolo[1,5-a]pyrimidin-2-yl]benzonitrile], the Ki was 127 nM in assay [1], 378 nM in assay [2], 776 nM in assay [3] and more than 1000 nM in assay [4].

Turning to `Cc1cc(-c2c(-c3cccc(C#N)c3)nn3ccc(NC4CCN(C)C(=O)C4)nc23)cc(C)n1` (stereo not drawn) [Example 105.2, 3-[3-(2,6-Dimethyl-4-pyridyl)-5-[(1-methyl-2-oxo-4-piperidyl)amino]pyrazolo[1,5-a]pyrimidin-2-yl]benzonitrile], the Ki in assay [1] was 1.7 nM; in assay [2], 18 nM; in assay [3], 35 nM; in assay [4], more than 1000 nM.
